The values that follow come from patent US20260028326A1, “COMPOUND BASED ON ISOINDOLINE-SUBSTITUTED GLUTARIMIDE BACKBONE AND USE THEREOF” (GLUETACS THERAPEUTICS (SHANGHAI) CO., LTD., priority 2022, published 2026).

Where only a bound is given, the exact number is not on record here.

The subject of one assay is Mino cells. Briefly: Tumor cell proliferation IC50 (CCK-8), Mino.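 Further: cell viability assessed with CCK-8 reagent after compound exposure, IC50 derived from plotted growth inhibition curves.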 To be noted: Homo sapiens, 72 h, read-out: IC50 for inhibiting the proliferation of tumor cells, Mino.
Another assay concerns the target IKZF3 protein (Homo sapiens (Human), UniProt Q96SW2+Q9UKT9). Description: Western-blot assay of substrate protein degradation in hPBMC, IKZF3. Type of assay: cell-based. Particulars: for residual substrate protein level, IKZF3: hPBMC cells, compound 500 nM, 24 hours, Western blot.
For assay [1], the target named is human Cereblon WT GST-tagged protein (Homo sapiens (Human), UniProt Q96SW2). Briefly: CRBN-binding affinity, HTRF (CEREBLON BINDING kit). In a few lines: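 HTRF competition readout: compounds compete with a thalidomide-Re conjugate for GST-tagged wild-type human CRBN detected via Eu-labelled anti-GST antibody. Inhibition rate derived relative to protein-free blank wells.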
Chain of human Cereblon WT GST-tagged protein (Q96SW2 whole entry): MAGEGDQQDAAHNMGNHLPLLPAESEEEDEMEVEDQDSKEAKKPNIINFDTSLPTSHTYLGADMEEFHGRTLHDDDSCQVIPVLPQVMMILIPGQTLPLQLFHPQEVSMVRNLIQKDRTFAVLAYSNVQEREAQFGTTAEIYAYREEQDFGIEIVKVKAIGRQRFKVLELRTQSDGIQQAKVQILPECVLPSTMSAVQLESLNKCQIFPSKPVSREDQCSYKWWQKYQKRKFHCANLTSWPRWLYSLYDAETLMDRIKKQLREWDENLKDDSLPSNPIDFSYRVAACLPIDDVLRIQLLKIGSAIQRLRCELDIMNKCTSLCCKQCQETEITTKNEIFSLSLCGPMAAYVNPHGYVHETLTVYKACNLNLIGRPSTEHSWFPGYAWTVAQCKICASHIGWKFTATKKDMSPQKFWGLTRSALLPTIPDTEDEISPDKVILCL

The target in a further assay is GSPT1 protein (Homo sapiens (Human), UniProt P15170+Q96SW2). Description: Western-blot assay of substrate protein degradation in hPBMC, GSPT1. Type of assay: cell-based. To be noted: for residual substrate protein level, GSPT1: hPBMC cells, compound 500 nM, 24 hours, Western blot.
Chain of GSPT1 protein (P15170 whole entry): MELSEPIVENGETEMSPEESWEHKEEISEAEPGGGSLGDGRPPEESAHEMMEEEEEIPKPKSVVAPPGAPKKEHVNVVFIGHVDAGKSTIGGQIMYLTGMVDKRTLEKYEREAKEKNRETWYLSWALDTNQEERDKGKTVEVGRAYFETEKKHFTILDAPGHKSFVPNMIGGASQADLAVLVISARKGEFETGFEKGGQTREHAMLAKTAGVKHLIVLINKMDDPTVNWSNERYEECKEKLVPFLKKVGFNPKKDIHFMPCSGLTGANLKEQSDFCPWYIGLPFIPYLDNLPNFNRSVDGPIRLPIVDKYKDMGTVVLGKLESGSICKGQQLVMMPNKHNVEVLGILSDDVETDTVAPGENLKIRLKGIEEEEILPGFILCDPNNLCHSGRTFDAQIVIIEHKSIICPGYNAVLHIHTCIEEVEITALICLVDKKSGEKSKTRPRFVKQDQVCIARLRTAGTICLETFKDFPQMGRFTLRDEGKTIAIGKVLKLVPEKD
Chain of GSPT1 protein (Q96SW2 whole entry): as the sequence (Q96SW2 whole entry) above
Chain of GSPT1 protein (Q16531 whole entry partner): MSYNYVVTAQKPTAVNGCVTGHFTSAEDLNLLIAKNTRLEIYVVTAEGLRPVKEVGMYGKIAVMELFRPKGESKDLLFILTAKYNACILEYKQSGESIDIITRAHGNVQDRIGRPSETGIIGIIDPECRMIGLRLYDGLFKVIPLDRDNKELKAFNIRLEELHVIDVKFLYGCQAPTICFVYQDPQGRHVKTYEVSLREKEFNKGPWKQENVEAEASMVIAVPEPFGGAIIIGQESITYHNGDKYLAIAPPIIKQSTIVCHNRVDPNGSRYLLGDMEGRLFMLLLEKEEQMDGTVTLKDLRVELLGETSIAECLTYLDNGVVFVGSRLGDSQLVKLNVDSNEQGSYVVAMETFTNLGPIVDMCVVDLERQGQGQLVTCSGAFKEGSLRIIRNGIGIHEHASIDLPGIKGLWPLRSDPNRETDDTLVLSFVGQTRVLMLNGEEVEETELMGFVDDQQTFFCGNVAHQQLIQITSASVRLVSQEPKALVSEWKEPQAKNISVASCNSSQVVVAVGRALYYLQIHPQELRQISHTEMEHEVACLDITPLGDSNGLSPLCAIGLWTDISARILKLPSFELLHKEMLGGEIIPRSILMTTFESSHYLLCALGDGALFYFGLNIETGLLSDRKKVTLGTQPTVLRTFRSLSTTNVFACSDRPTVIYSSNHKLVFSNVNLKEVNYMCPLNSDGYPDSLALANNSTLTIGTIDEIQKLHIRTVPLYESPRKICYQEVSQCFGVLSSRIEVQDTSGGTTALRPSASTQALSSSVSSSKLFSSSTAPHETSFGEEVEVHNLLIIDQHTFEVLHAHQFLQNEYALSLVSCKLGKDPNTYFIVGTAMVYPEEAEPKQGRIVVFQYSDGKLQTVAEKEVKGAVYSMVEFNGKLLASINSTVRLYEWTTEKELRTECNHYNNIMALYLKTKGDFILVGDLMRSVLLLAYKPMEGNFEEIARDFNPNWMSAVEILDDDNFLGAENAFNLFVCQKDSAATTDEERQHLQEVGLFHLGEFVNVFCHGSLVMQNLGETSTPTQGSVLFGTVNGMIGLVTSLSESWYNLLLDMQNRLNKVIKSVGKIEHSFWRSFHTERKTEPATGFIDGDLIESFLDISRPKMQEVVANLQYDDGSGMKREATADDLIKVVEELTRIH
A further assay concerns the target IKZF1 protein (Homo sapiens (Human), UniProt Q13422+Q96SW2). Briefly: Western-blot assay of substrate protein degradation in hPBMC, IKZF1. Type of assay: cell-based. To be noted: for residual substrate protein level, IKZF1: hPBMC cells, compound 500 nM, 24 hours, Western blot.
Setting [2] is: hPBMC, 24 h, serially diluted 0.03-1000 nM.

Chain of IKZF3 protein (Q9UKT9 whole entry): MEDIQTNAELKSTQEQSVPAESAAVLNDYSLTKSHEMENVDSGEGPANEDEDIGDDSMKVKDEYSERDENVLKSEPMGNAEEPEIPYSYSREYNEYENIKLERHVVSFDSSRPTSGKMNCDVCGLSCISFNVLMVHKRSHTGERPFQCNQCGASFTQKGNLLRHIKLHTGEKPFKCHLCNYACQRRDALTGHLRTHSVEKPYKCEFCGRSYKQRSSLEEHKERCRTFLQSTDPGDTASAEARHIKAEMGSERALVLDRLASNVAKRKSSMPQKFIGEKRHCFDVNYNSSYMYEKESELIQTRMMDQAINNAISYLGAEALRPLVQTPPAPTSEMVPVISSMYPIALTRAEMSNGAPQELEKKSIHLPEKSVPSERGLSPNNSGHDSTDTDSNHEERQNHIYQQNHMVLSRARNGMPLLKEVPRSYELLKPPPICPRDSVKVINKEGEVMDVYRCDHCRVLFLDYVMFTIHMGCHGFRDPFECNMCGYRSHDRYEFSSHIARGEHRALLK
Chain of IKZF3 protein (Q96SW2 whole entry): as the sequence (Q96SW2 whole entry) above
Chain of IKZF3 protein (Q16531 whole entry partner): as the sequence (Q16531 whole entry partner) above
Chain of IKZF1 protein (Q13422 whole entry): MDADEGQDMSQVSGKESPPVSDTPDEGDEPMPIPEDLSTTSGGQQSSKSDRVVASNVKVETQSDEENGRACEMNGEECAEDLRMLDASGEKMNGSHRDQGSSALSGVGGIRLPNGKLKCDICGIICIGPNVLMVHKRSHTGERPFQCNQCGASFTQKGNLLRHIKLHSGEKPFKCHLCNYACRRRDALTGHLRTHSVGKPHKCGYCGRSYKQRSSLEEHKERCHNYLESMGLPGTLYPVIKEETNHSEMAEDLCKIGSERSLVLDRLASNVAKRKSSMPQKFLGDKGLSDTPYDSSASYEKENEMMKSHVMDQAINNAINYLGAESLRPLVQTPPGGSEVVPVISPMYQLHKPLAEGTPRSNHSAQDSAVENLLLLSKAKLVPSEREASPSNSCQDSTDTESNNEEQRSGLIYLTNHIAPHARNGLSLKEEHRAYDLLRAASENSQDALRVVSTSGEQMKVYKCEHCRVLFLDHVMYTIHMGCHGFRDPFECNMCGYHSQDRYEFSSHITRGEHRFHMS
Chain of IKZF1 protein (Q96SW2 whole entry): as the sequence (Q96SW2 whole entry) above
Chain of IKZF1 protein (Q16531 whole entry partner): as the sequence (Q16531 whole entry partner) above

As for `O=C1CCC(N2Cc3cc(CN4CCN(Cc5ccc(-c6ccco6)o5)CC4)ccc3C2=O)C(=O)N1` (stereo not drawn) [GT-05695, 3-(5-((4-([2,2′-bifuran]-5-ylmethyl)piperazin-1-yl)methyl)-1-oxoisoindolin-2-yl)piperidine-2,6-dione], the values for the IC50 (with Mino cells; in assay [1]) were 100 to 500 nM and 250 nM, respectively. Further, the “residual substrate protein level, IKZF3” value at IKZF3 protein is recorded as “A (A represents a residual substrate protein level of <50%)”. For the same compound, the “residual substrate protein level, GSPT1” value at GSPT1 protein was “B (B represents a residual substrate protein level of >50%)”. Besides, the “residual substrate protein level, IKZF1” value at IKZF1 protein is listed as “A (A represents a residual substrate protein level of <50%)”.
`O=C1CCC(N2Cc3cc(CN4CCN(Cc5ccc(-c6cccs6)o5)CC4)ccc3C2=O)C(=O)N1` (stereo not drawn) [GT-05627, 3-(1-oxo-5-((4-((5-(thiophen-2-yl)furan-2-yl)methyl)piperazin-1-yl)methyl)isoindolin-2-yl)piperidine-2,6-dione]: the IC50 in the assay on Mino cells is 100 to 500 nM; in assay [1] it was 260 nM.
Regarding `O=C1CCC(N2C(=O)c3ccc(CN4CCN(Cc5ccc(-c6ccncc6)nc5)CC4)cc3C2=O)C(=O)N1` (stereo not drawn) [GT-05634, 5-((4-([2,4′-bipyridin]-5-ylmethyl)piperazin-1-yl)methyl)-2-(2,6-dioxopiperidin-3-yl)isoindoline-1,3-dione], in the assay with Mino cells, the IC50 was in the range of 500 to 1000 nM. Besides, the “residual substrate protein level, IKZF3” value on IKZF3 protein was “A (A represents a residual substrate protein level of <50%)”. Further, the “residual substrate protein level, GSPT1” value on GSPT1 protein is given as “B (B represents a residual substrate protein level of >50%)”. Besides, the “residual substrate protein level, IKZF1” value at IKZF1 protein is on record as “A (A represents a residual substrate protein level of <50%)”.
`O=C1CCC(N2Cc3c(ccc(CN4C5CC4CN(Cc4ccccc4-c4ccc(Cl)cc4)C5)c3F)C2=O)C(=O)N1` (stereo not drawn) [GT-05608, 3-(5-((3-((4′-chloro-[1,1′-biphenyl]-2-yl)methyl)-3,6-diazabicyclo[3.1.1]heptan-6-yl)methyl)-4-fluoro-1-oxoisoindolin-2-yl)piperidine-2,6-dione]: the IC50 with Mino cells was 500 to 1000 nM; in assay [1] it was 800 nM. The “residual substrate protein level, IKZF3” value on IKZF3 protein is given as “A (A represents a residual substrate protein level of <50%)”. Also, on GSPT1 protein, the “residual substrate protein level, GSPT1” value is given as “A (A represents a residual substrate protein level of <50%)”. Also, the “residual substrate protein level, IKZF1” value at IKZF1 protein was “B (B represents a residual substrate protein level of >50%)”.
Regarding `O=C1CCC(N2Cc3cc(CN4CCN(Cc5cccc(-c6ccc(Cl)cn6)c5)CC4)ccc3C2=O)C(=O)N1` (stereo not drawn) [GT-05596, 3-(5-((4-(3-(5-chloropyridin-2-yl)benzyl)piperazin-1-yl)methyl)-1-oxoisoindolin-2-yl)piperidine-2,6-dione], the IC50 in the assay on Mino cells is 10 to 50 nM; in assay [1] it was 1340 nM. Further, the “residual substrate protein level, IKZF3” value on IKZF3 protein is “A (A represents a residual substrate protein level of <50%)”. For the same compound, at IKZF3 protein (setting [2]), the “concentration at which significant degradation effects on IKZF3 protein are exhibited (FIG. 1)” value is recorded as under 3 nM. Moreover, the “residual substrate protein level, GSPT1” value at GSPT1 protein was “B (B represents a residual substrate protein level of >50%)”. Besides, at GSPT1 protein (setting [2]), the “concentration at which significant degradation effects on GSPT1 protein are exhibited (FIG. 1)” value is under 3 nM. Also, the “residual substrate protein level, IKZF1” value on IKZF1 protein is “A (A represents a residual substrate protein level of <50%)”. The “concentration at which significant degradation effects on IKZF1 protein are exhibited (FIG. 1)” value at IKZF1 protein (setting [2]) is reported as under 3 nM.
For the compound `O=C1CCC(N2Cc3cc(CN4CCN(Cc5cccc(-c6ccco6)c5)CC4)ccc3C2=O)C(=O)N1` (stereo not drawn) [GT-05692, 3-(5-((4-(3-(furan-2-yl)benzyl)piperazin-1-yl)methyl)-1-oxoisoindolin-2-yl)piperidine-2,6-dione], the IC50 in the assay on Mino cells was 100 to 500 nM; in assay [1] it was 470 nM.
The like results for `O=C1CCC(N2Cc3cc(CN4CCN(Cc5cccc(-c6cccs6)c5)CC4)ccc3C2=O)C(=O)N1` (stereo not drawn) [GT-05597, 3-(1-oxo-5-((4-(3-(thiophen-2-yl)benzyl)piperazin-1-yl)methyl)isoindolin-2-yl)piperidine-2,6-dione] were, in that order, 100 to 500 nM and 1400 nM.
Turning to `O=C1CCC(N2C(=O)c3ccc(CN4CCN(Cc5cnc(-c6ccccc6)cn5)CC4)cc3C2=O)C(=O)N1` (stereo not drawn) [GT-05545, 2-(2,6-dioxopiperidin-3-yl)-5-((4-((5-phenylpyrazin-2-yl)methyl)piperazin-1-yl)methyl)isoindoline-1,3-dione], the IC50 with Mino cells is 500 to 1000 nM. Besides, the “residual substrate protein level, IKZF3” value at IKZF3 protein is “A (A represents a residual substrate protein level of <50%)”. Moreover, the “residual substrate protein level, GSPT1” value at GSPT1 protein is reported as “B (B represents a residual substrate protein level of >50%)”. The “residual substrate protein level, IKZF1” value at IKZF1 protein is reported as “B (B represents a residual substrate protein level of >50%)”.
`CC1(C)CCC(CN2CC3(C2)CN(Cc2ccc4c(c2)CN(C2CCC(=O)NC2=O)C4=O)C3)=C(c2ccc(Cl)cc2)C1` (stereo not drawn) [GT-05685, 3-(5-((6-((4′-chloro-5,5-dimethyl-3,4,5,6-tetrahydro-[1,1′-biphenyl]-2-yl)methyl)-2,6-diazaspiro[3.3]heptan-2-yl)methyl)-1-oxoisoindolin-2-yl)piperidine-2,6-dione]: the values for the IC50 (with Mino cells; in assay [1]) were 100 to 500 nM and 1160 nM, respectively.
Consider `O=C1CCC(N2Cc3cc(CN4CCN(Cc5cccc(-c6ccc(Cl)cc6)c5)CC4)ccc3C2=O)C(=O)N1` (stereo not drawn) [GT-05629, 3-(5-((4-((4′-chloro-[1,1′-biphenyl]-3-yl)methyl)piperazin-1-yl)methyl)-1-oxoisoindolin-2-yl)piperidine-2,6-dione], for which the IC50 is 100 to 500 nM in the assay with Mino cells and 1280 nM in assay [1].
Turning to `CC1(C)CCC(C(=O)N2CC3CN(Cc4ccc5c(c4)CN(C4CCC(=O)NC4=O)C5=O)CC3C2)=C(c2ccc(Cl)cc2)C1` (stereo not drawn) [GT-05658, 3-(5-((5-(4′-chloro-5,5-dimethyl-3,4,5,6-tetrahydro-[1,1′-biphenyl]-2-carbonyl)hexahydropyrrolo[3,4-c]pyrrol-2(1H)-yl)methyl)-1-oxoisoindolin-2-yl)piperidine-2,6-dione], the “residual substrate protein level, IKZF3” value on IKZF3 protein is on record as “A (A represents a residual substrate protein level of <50%)”. Also, the IC50 in assay [1] was determined as 740 nM. Besides, the “residual substrate protein level, GSPT1” value on GSPT1 protein was “B (B represents a residual substrate protein level of >50%)”. Besides, the “residual substrate protein level, IKZF1” value at IKZF1 protein is on record as “B (B represents a residual substrate protein level of >50%)”.
Take `CC1(C)CCC(CN2CCCN(Cc3ccc4c(c3)CN(C3CCC(=O)NC3=O)C4=O)CC2)=C(c2ccc(F)cc2)C1` (stereo not drawn) [GT-05504, 3-(5-((4-((4′-fluoro-5,5-dimethyl-3,4,5,6-tetrahydro-[1,1′-biphenyl]-2-yl)methyl)-1,4-diazepan-1-yl)methyl)-1-oxoisoindolin-2-yl)piperidine-2,6-dione]: the “residual substrate protein level, IKZF3” value at IKZF3 protein is “A (A represents a residual substrate protein level of <50%)”. This compound also registered an IC50 in assay [1] of 730 nM. Further, the “residual substrate protein level, GSPT1” value on GSPT1 protein was “B (B represents a residual substrate protein level of >50%)”. The “residual substrate protein level, IKZF1” value on IKZF1 protein was “A (A represents a residual substrate protein level of <50%)”.
`CC1(C)CCC(CN2CC3CCC2CN3Cc2ccc3c(c2)CN(C2CCC(=O)NC2=O)C3=O)=C(c2ccc(F)cc2)C1` (stereo not drawn) [GT-05512, 3-(5-((5-((4′-fluoro-5,5-dimethyl-3,4,5,6-tetrahydro-[1,1′-biphenyl]-2-yl)methyl)-2,5-diazabicyclo[2.2.2]octan-2-yl)methyl)-1-oxoisoindolin-2-yl)piperidine-2,6-dione]: the “residual substrate protein level, IKZF3” value at IKZF3 protein is recorded as “B (B represents a residual substrate protein level of >50%)”. In assay [1], the IC50 was 570 nM. At GSPT1 protein, the “residual substrate protein level, GSPT1” value was “A (A represents a residual substrate protein level of <50%)”. For the same compound, the “residual substrate protein level, IKZF1” value on IKZF1 protein is “B (B represents a residual substrate protein level of >50%)”.
Turning to `CC1(C)CCC(C(=O)N2CC(O)(C(O)c3ccc4c(c3)CN(C3CCC(=O)NC3=O)C4=O)C2)=C(c2ccc(Cl)cc2)C1` (stereo not drawn) [GT-05426, 3-(5-((1-(4′-chloro-5,5-dimethyl-3,4,5,6-tetrahydro-[1,1′-biphenyl]-2-carbonyl)-3-hydroxyazetidin-3-yl)(hydroxy)methyl)-1-oxoisoindolin-2-yl)piperidine-2,6-dione], the “residual substrate protein level, IKZF3” value at IKZF3 protein is listed as “A (A represents a residual substrate protein level of <50%)”. In assay [1], this compound yielded an IC50 of 620 nM. Also, at GSPT1 protein, the “residual substrate protein level, GSPT1” value is given as “A (A represents a residual substrate protein level of <50%)”. Further, the “residual substrate protein level, IKZF1” value on IKZF1 protein was “B (B represents a residual substrate protein level of >50%)”.
As for `CC1(C)CCC(C(=O)N2CCC3(CC2)CN(Cc2ccc4c(c2)CN(C2CCC(=O)NC2=O)C4=O)C3)=C(c2ccc(F)cc2)C1` (stereo not drawn) [GT-05404, 3-(5-((7-(4′-fluoro-5,5-dimethyl-3,4,5,6-tetrahydro-[1,1′-biphenyl]-2-carbonyl)-2,7-diazaspiro[3.5]nonan-2-yl)methyl)-1-oxoisoindolin-2-yl)piperidine-2,6-dione], the “residual substrate protein level, IKZF3” value at IKZF3 protein was “A (A represents a residual substrate protein level of <50%)”. The same compound came in with an IC50 in assay [1] of 490 nM. In addition, the “residual substrate protein level, GSPT1” value at GSPT1 protein is recorded as “B (B represents a residual substrate protein level of >50%)”. The “residual substrate protein level, IKZF1” value at IKZF1 protein is given as “B (B represents a residual substrate protein level of >50%)”.
In the case of `O=C1CCC(N2Cc3cc(CN4CCN(Cc5cccc(-c6ccc[nH]6)c5)CC4)ccc3C2=O)C(=O)N1` (stereo not drawn) [GT-05733, 3-(5-((4-(3-(1H-pyrrol-2-yl)benzyl)piperazin-1-yl)methyl)-1-oxoisoindolin-2-yl)piperidine-2,6-dione], on IKZF3 protein, the “residual substrate protein level, IKZF3” value is on record as “A (A represents a residual substrate protein level of <50%)”. Further, the IC50 in assay [1] turned out to be 210 nM. The “residual substrate protein level, GSPT1” value at GSPT1 protein was “A (A represents a residual substrate protein level of <50%)”. Besides, the “residual substrate protein level, IKZF1” value on IKZF1 protein is “B (B represents a residual substrate protein level of >50%)”.
